{
  "source": "patent US10131652B2",
  "about": "“Pyrimidinyloxy benzene derivatives as herbicides” (E. I. DU PONT DE NEMOURS AND COMPANY, priority 2014, dated 2018)",
  "assay_type_in_all_cases": "in vivo",
  "key": {"[1]": {"tested_on": "Italian ryegrass (Lolium multiflorum)", "test": "Test B pre-/postemergence plant response", "in_short": "(§1)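 Seeds in loam–sand blend given preemergence soil spray; separately, plants at one- to two-leaf stage (2–10 cm) sprayed postemergence, compounds in non-phytotoxic solvent with surfactant. Injury rated visually versus untreated controls after ~10 days in greenhouse, 0 (no effect) to 100 (complete control).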"}, "[2]": {"tested_on": "barnyardgrass (Echinochloa crus-galli)", "test": "Test B pre-/postemergence plant response", "in_short": "as §1"}, "[3]": {"tested_on": "corn (Zea mays)", "test": "Test B pre-/postemergence plant response", "conditions": "0 to 100 scale, 0 no effect, 100 complete control", "in_short": "as §1"}, "[4]": {"tested_on": "giant foxtail (Setaria faberii)", "test": "Test B pre-/postemergence plant response", "in_short": "as §1"}, "[5]": {"tested_on": "kochia (Kochia scoparia)", "test": "Test B pre-/postemergence plant response", "in_short": "as §1"}, "[6]": {"tested_on": "pigweed (Amaranthus retroflexus)", "test": "Test B pre-/postemergence plant response", "in_short": "as §1"}, "[7]": {"tested_on": "ragweed (common ragweed, Ambrosia elatior)", "test": "Test B pre-/postemergence plant response", "in_short": "as §1"}, "[8]": {"tested_on": "wheat (Triticum aestivum)", "test": "Test B pre-/postemergence plant response", "conditions": "0 to 100 scale, 0 no effect, 100 complete control", "in_short": "as §1"}, "[9]": {"tested_on": "blackgrass (Alopecurus myosuroides)", "test": "Test B postemergence plant response", "conditions": "0 to 100 scale, 0 no effect, 100 complete control", "in_short": "(§2)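 Weeds grown in loam soil/sand pots were sprayed postemergence at 2 to 10 cm height, one- to two-leaf stage. After approximately 10 days in greenhouse, injury was rated visually against untreated controls on a 0 (no effect) to 100 (complete control) scale; dash means no test result.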"}, "[10]": {"tested_on": "galium (catchweed bedstraw, Galium aparine)", "test": "Test B postemergence plant response", "conditions": "0 to 100 scale, 0 no effect, 100 complete control", "in_short": "as §2"}, "[11]": {"tested_on": "barnyardgrass (Echinochloa crus-galli)", "test": "Test C flooded paddy test plant response", "conditions": "Flood, 250 g ai/ha; scale of 0 to 100 where 0 is no effect and 100 is complete control; 13 to 15 days", "in_short": "(§3)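 Readout is a visual 0–100 score (100 = complete control) versus controls at 13–15 days. Plants at 2-leaf stage, flooded to 3 cm, treated through paddy water.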"}, "[12]": {"tested_on": "ducksalad (Heteranthera limosa)", "test": "Test C flooded paddy test plant response", "conditions": "Flood, 250 g ai/ha; scale of 0 to 100 where 0 is no effect and 100 is complete control; 13 to 15 days", "in_short": "as §3"}, "[13]": {"tested_on": "rice (Oryza sativa)", "test": "Test C flooded paddy test plant response", "conditions": "Flood, 250 g ai/ha; scale of 0 to 100 where 0 is no effect and 100 is complete control; 13 to 15 days", "in_short": "as §3"}, "[14]": {"tested_on": "small-flower umbrella sedge (Cyperus difformis)", "test": "Test C flooded paddy test plant response", "conditions": "Flood, 250 g ai/ha; scale of 0 to 100 where 0 is no effect and 100 is complete control; 13 to 15 days", "in_short": "as §3"}, "[15]": {"tested_on": "chickweed (common chickweed, Stellaria media)", "test": "Test D postemergence plant response", "conditions": "for Chickweed plant response rating: scale 0 to 100 (0 no effect, 100 complete control); for Plant response rating, Chickweed: scale 0 to 100, 0 no effect, 100 complete control", "source_text": "(§4) At the same time, plants selected from these crop and weed species and also kochia (Kochia scoparia), wild oat (Avena fatua), and chickweed (common chickweed, Stellaria media) were planted in pots containing Redi-Earth® planting medium (Scotts Company, 14111 Scottslawn Road, Marysville, Ohio 43041) comprising spaghnum peat moss, vermiculite, wetting agent and starter nutrients and treated with postemergence applications of test chemicals formulated in the same manner. Plants ranged in height from 2 to 18 cm (1- to 4-leaf stage) for postemergence treatments. Treated plants and controls were maintained in a greenhouse for 13 to 15 days, after which time all species were compared to controls and visually evaluated. Plant response ratings, summarized in Table D, are based on a scale of 0 to 100 where 0 is no effect and 100 is complete control. A dash (-) response means no test result."}, "[16]": {"tested_on": "kochia (Kochia scoparia)", "test": "Test D postemergence plant response", "conditions": "for Kochia plant response rating: scale 0 to 100 (0 no effect, 100 complete control); for Plant response rating, Kochia: scale 0 to 100, 0 no effect, 100 complete control", "source_text": "as §4"}, "[17]": {"tested_on": "wild oat (Avena fatua)", "test": "Test D postemergence plant response", "conditions": "for Oat, Wild plant response rating: scale 0 to 100 (0 no effect, 100 complete control); for Plant response rating, Oat, Wild: scale 0 to 100, 0 no effect, 100 complete control", "source_text": "as §4"}, "[18]": {"conditions": "31 g ai/ha, Postemergence, 0 to 100 scale, 0 no effect, 100 complete control"}, "[19]": {"conditions": "125 g ai/ha, postemergence, 0 to 100 scale, 0 no effect, 100 complete control"}, "[20]": {"conditions": "Preemergence, 31 g ai/ha, 0 to 100 scale (0 no effect, 100 complete control)"}, "[21]": {"conditions": "Preemergence, 125 g ai/ha, 0 to 100 scale where 0 is no effect and 100 is complete control"}},
  "data": [
    {"smiles": "Fc1ccc(Oc2ncc(Cl)cn2)c(-c2cc(C(F)F)on2)c1Cl", "note": "[Compound 96]", "values": [
      {"measurement": "Plant response rating, Ryegrass, Italian", "setting": "[1]; [18]", "result": 30},
      {"measurement": "Plant response rating, Ryegrass, Italian", "setting": "[1]; [19]", "result": 60},
      {"measurement": "Ryegrass, Italian plant response rating", "setting": "[1]; [20]", "result": 0},
      {"measurement": "Plant response rating, Ryegrass, Italian", "setting": "[1]; [21]", "result": 0},
      {"measurement": "Plant response rating, Barnyardgrass", "setting": "[2]; [18]", "result": 10},
      {"measurement": "Plant response rating, Barnyardgrass", "setting": "[2]; [19]", "result": 30},
      {"measurement": "Barnyardgrass plant response rating", "setting": "[2]; [20]", "result": 0},
      {"measurement": "Plant response rating, Barnyardgrass", "setting": "[2]; [21]", "result": 20},
      {"measurement": "Plant response rating, Corn", "setting": "[3]; 31 g ai/ha, Postemergence", "result": 0},
      {"measurement": "Plant response rating, Corn", "setting": "[3]; 125 g ai/ha, postemergence", "result": 20},
      {"measurement": "Plant response rating, Foxtail, Giant", "setting": "[4]; [18]", "result": 0},
      {"measurement": "Plant response rating, Foxtail, Giant", "setting": "[4]; [19]", "result": 50},
      {"measurement": "Foxtail, Giant plant response rating", "setting": "[4]; [20]", "result": 10},
      {"measurement": "Plant response rating, Foxtail, Giant", "setting": "[4]; [21]", "result": 40},
      {"measurement": "Plant response rating, Kochia", "setting": "[5]; [18]", "result": 70},
      {"measurement": "Plant response rating, Kochia", "setting": "[5]; [19]", "result": 100},
      {"measurement": "Kochia plant response rating", "setting": "[5]; [20]", "result": 50},
      {"measurement": "Plant response rating, Kochia", "setting": "[5]; [21]", "result": 70},
      {"measurement": "Plant response rating, Pigweed", "setting": "[6]; [18]", "result": 100},
      {"measurement": "Plant response rating, Pigweed", "setting": "[6]; [19]", "result": 100},
      {"measurement": "Pigweed plant response rating", "setting": "[6]; [20]", "result": 90},
      {"measurement": "Plant response rating, Pigweed", "setting": "[6]; [21]", "result": 100},
      {"measurement": "Plant response rating, Ragweed", "setting": "[7]; [18]", "result": 50},
      {"measurement": "Plant response rating, Ragweed", "setting": "[7]; [19]", "result": 60},
      {"measurement": "Ragweed plant response rating", "setting": "[7]; [20]", "result": 0},
      {"measurement": "Plant response rating, Ragweed", "setting": "[7]; [21]", "result": 0},
      {"measurement": "Plant response rating, Wheat", "setting": "[8]; 31 g ai/ha, Postemergence", "result": 0},
      {"measurement": "Plant response rating, Wheat", "setting": "[8]; 125 g ai/ha, postemergence", "result": 0},
      {"measurement": "Plant response rating, Blackgrass", "setting": "[9]; 31 g ai/ha, Postemergence", "result": 10},
      {"measurement": "Plant response rating, Blackgrass", "setting": "[9]; 125 g ai/ha, postemergence", "result": 70},
      {"measurement": "Plant response rating, Galium", "setting": "[10]; 31 g ai/ha, Postemergence", "result": 100},
      {"measurement": "Plant response rating, Galium", "setting": "[10]; 125 g ai/ha, postemergence", "result": 100},
      {"measurement": "Barnyardgrass plant response rating", "setting": "[11]", "result": 15},
      {"measurement": "Ducksalad plant response rating", "setting": "[12]", "result": 90},
      {"measurement": "Rice plant response rating", "setting": "[13]", "result": 30},
      {"measurement": "Sedge, Umbrella plant response rating", "setting": "[14]", "result": 100},
      {"measurement": "Chickweed plant response rating", "setting": "[15]; 16 g ai/ha", "result": 60},
      {"measurement": "Chickweed plant response rating", "setting": "[15]; 31 g ai/ha", "result": 85},
      {"measurement": "Plant response rating, Chickweed", "setting": "[15]; 62 g ai/ha", "result": 90},
      {"measurement": "Plant response rating, Chickweed", "setting": "[15]; 125 g ai/ha", "result": 98},
      {"measurement": "Kochia plant response rating", "setting": "[16]; 16 g ai/ha", "result": 25},
      {"measurement": "Kochia plant response rating", "setting": "[16]; 31 g ai/ha", "result": 60},
      {"measurement": "Plant response rating, Kochia", "setting": "[16]; 62 g ai/ha", "result": 85},
      {"measurement": "Plant response rating, Kochia", "setting": "[16]; 125 g ai/ha", "result": 100},
      {"measurement": "Oat, Wild plant response rating", "setting": "[17]; 16 g ai/ha", "result": 15},
      {"measurement": "Oat, Wild plant response rating", "setting": "[17]; 31 g ai/ha", "result": 20},
      {"measurement": "Plant response rating, Oat, Wild", "setting": "[17]; 62 g ai/ha", "result": 20},
      {"measurement": "Plant response rating, Oat, Wild", "setting": "[17]; 125 g ai/ha", "result": 20}
    ]}
  ]
}
